From patent US20230146233A1, “A CLASS OF POLYCYCLIC COMPOUNDS INHIBITING RNA HELICASE DHX33 AND THE APPLICATION THEREOF” (Shenzhen KeYe Life Technologies, Co., Ltd, priority 2020, published 2023)

tested on: U251-MG cells; test: Half-maximal cell-inhibitory concentration on U251-MG cells (CCK-8); assay type: cell-based; conditions: Homo sapiens, U-251, U251-MG cells (DHX33-overexpressing cancer cell strain), 48 hours, read-out: IC50 (half-maximal inhibitory concentrations of compounds on U251-MG cells)
Method: U251-MG cells were purchased from the cell bank of the Chinese Academy of Sciences. Cells were cultured in MEM medium containing 10% fetal bovine serum (FBS), 2 mM L-glutammie, streptomycmn and penicillin. The growth conditions were set as follows: a humidified cell incubator (37° C., 5% CO2). Cells were passaged every 3 days and were discarded after 10 passages.
U251-MG cells (a […]-overexpressing cancer cell strain) were seeded on a 96-well plate at 1×10^4 cells/100 μl/well. After the cells were completely attached, the compounds were added to the cell culture medium at a concentration of 5 nM, 10 nM, 25 nM, 50 nM, 100 nM, […], 500 nM, 1000 nM, 2000 nM, […] or 20 μM, and the resulting mixture was uniformly mixed with a multichannel pipette. After the cells were incubated with the compound for 48 hours, CCK-8 reagent (Yeasen Biotechnology (Shanghai) Co., Ltd.) was added to the medium in the 96-well plate in accordance with the standard procedure. After being incubated for 2 hours, the plate was read with a microplate reader (OD=450 nm). The experiment was repeated three times, the inhibition curve of the compound at different concentrations was plotted, and the half-maximal inhibitory concentration (IC50) of the compound was calculated.

Row | SMILES | IC50 [nM]
1 | COc1ccnc2nc(/C(C#N)=C/c3cc(C)n(-c4sc(C)c(C)c4C#N)c3C)[nH]c12 [AB24310, (E)-2-(3-(2-cyano-2-(7-methoxy-1H-imidazo[4,5-b]pyridin-2-yl)vinyl)-2,5-dimethyl-1H-pyrrol-1-yl)-4,5-dimethylthiophene-3-carbonitrile] | 5000 to 20000
2 | COC(=O)c1cc(C)sc1-n1c(C)cc(/C=C(\C#N)c2nc3cc(OC)ncc3[nH]2)c1C [AB24311, methyl (E)-2-(3-(2-cyano-2-(6-methoxy-3H-imidazo[4,5-c]pyridin-2-yl)vinyl)-2,5-dimethyl-1H-pyrrol-1-yl)-5-methylthiophene-3-carboxylate] | < 100
3 | COc1cc2nc(/C(C#N)=C/c3cc(C)n(-c4sc(C)cc4C(N)=O)c3C)[nH]c2cn1 [AB24313, (E)-2-(3-(2-cyano-2-(6-methoxy-3H-imidazo[4,5-c]pyridin-2-yl)vinyl)-2,5-dimethyl-1H-pyrrol-1-yl)-5-methylthiophene-3-carboxamide] | 100 to 1000
4 | COC(=O)c1c(-n2c(C)cc(/C=C(\C#N)c3nc4cc(OC)ncc4[nH]3)c2C)sc(C)c1C [AB24316] | 100 to 1000
5 | CCc1cc(C#N)c(-n2c(C)cc(/C=C(\C#N)c3nc4cc(OC)ncc4[nH]3)c2C)s1 [AB24317, (E)-2-(3-(2-cyano-2-(6-methoxy-3H-imidazo[4,5-c]pyridin-2-yl)vinyl)-2,5-dimethyl-1H-pyrrol-1-yl)-5-ethylthiophene-3-carbonitrile] | < 100
6 | COc1cc2nc(/C(C#N)=C/c3cc(C)n(-c4sc(C)nc4C)c3C)[nH]c2cn1 [AB24319] | 100 to 1000
7 | CCOC(=O)c1cc(C#N)c(-n2c(C)cc(/C=C(\C#N)c3nc4cc(OC)ncc4[nH]3)c2C)s1 [AB24320] | 1000 to 5000
8 | COc1cc2nc(/C(C#N)=C/c3cc(C)n(-c4sc(Br)cc4C#N)c3C)[nH]c2cn1 [AB24323, (E)-5-bromo-2-(3-(2-cyano-2-(6-methoxy-3H-imidazo[4,5-c]pyridin-2-yl)vinyl)-2,5-dimethyl-1H-pyrrol-1-yl)thiophene-3-carbonitrile] | < 100
9 | COc1cc2nc(/C(C#N)=C/c3cc(C)n(-c4sc(C5CC5)cc4C#N)c3C)[nH]c2cn1 [AB24324, (E)-2-(3-(2-cyano-2-(6-methoxy-3H-imidazo[4,5-c]pyridin-2-yl)vinyl)-2,5-dimethyl-1H-pyrrol-1-yl)-5-cyclopropylthiophene-3-carbonitrile] | < 100
10 | COc1cc2nc(/C(C#N)=C/c3cc(C)n(-c4sc(C(C)C)cc4C#N)c3C)[nH]c2cn1 [AB24325, (E)-2-(3-(2-cyano-2-(6-methoxy-3H-imidazo[4,5-c]pyridin-2-yl)vinyl)-2,5-dimethyl-1H-pyrrol-1-yl)-5-isopropylthiophene-3-carbonitrile] | 100 to 1000
11 | COc1cc2nc(/C(C#N)=C/c3cc(C)n(-c4sc(C(C)(C)C)cc4C#N)c3C)[nH]c2cn1 [AB24326] | 100 to 1000
12 | COc1cc2nc(/C(C#N)=C/c3cc(C)n(-c4sc(Cc5ccccc5)cc4C#N)c3C)[nH]c2cn1 [AB24328, (E)-5-benzyl-2-(3-(2-cyano-2-(6-methoxy-3H-imidazo[4,5-c]pyridin-2-yl)vinyl)-2,5-dimethyl-1H-pyrrol-1-yl)thiophene-3-carbonitrile] | 100 to 1000
13 | COc1cnc2[nH]c(/C(C#N)=C/c3cc(C)n(-c4sc(C)cc4C#N)c3C)nc2c1 [AB24333, (E)-2-(3-(2-cyano-2-(6-methoxy-3H-imidazo[4,5-b]pyridin-2-yl)vinyl)-2,5-dimethyl-1H-pyrrol-1-yl)-5-methylthiophene-3-carbonitrile] | < 100
14 | COc1cc2nc(/C(C#N)=C/c3cnn(-c4sc(C)cc4C#N)c3C)[nH]c2cn1 [AB24334, (E)-2-(4-(2-cyano-2-(6-methoxy-3H-imidazo[4,5-c]pyridin-2-yl)vinyl)-5-methyl-1H-pyrazol-1-yl)-5-methylthiophene-3-carbonitrile] | 100 to 1000
15 | COc1cc2nc(/C(C#N)=C/c3cc(C)n(-c4sc(-c5cccnc5)cc4C#N)c3C)[nH]c2cn1 [AB24337] | 1000 to 5000
16 | COc1cc2nc(/C(C#N)=C/c3cc(C)n(-c4sc(-c5ccncc5)cc4C#N)c3C)[nH]c2cn1 [AB24338] | 1000 to 5000
17 | Cc1cc(C#N)c(-n2c(C)cc(/C=C(\C#N)c3nc4cc(Cl)ncc4[nH]3)c2C)s1 [AB24341, (E)-2-(3-(2-(6-chloro-3H-imidazo[4,5-c]pyridin-2-yl)-2-cyanovinyl)-2,5-dimethyl-1H-pyrrol-1-yl)-5-methylthiophene-3-carbonitrile] | < 100

Row | SMILES | IC50 [nM]
18 | COc1cc2cc(/C(C#N)=C/c3cc(C)n(-c4sc(C)cc4C#N)c3C)[nH]c2cn1 [AB24342, (Z)-2-(3-(2-cyano-2-(5-methoxy-1H-pyrrolo[2,3-c]pyridin-2-yl)vinyl)-2,5-dimethyl-1H-pyrrol-1-yl)-5-methylthiophene-3-carbonitrile] | 100 to 1000
19 | COC(=O)c1nc(C)sc1-n1c(C)cc(/C=C(\C#N)c2nc3cc(OC)ncc3[nH]2)c1C [AB24345] | 100 to 1000
20 | COc1cc2nc(/C(C#N)=C(\C)c3cc(C)n(-c4sc(C)cc4C#N)c3C)[nH]c2cn1 [AB24347, (E)-2-(3-(1-cyano-1-(6-methoxy-3H-imidazo[4,5-c]pyridin-2-yl)prop-1-en-2-yl)-2,5-dimethyl-1H-pyrrol-1-yl)-5-methylthiophene-3-carbonitrile] | 100 to 1000
21 | COc1cc2nc(/C(C#N)=C/c3cc(C)n(-c4sc(C)nc4C#N)c3C)[nH]c2cn1 [AB24348, (E)-5-(3-(2-cyano-2-(6-methoxy-3H-imidazo[4,5-c]pyridin-2-yl)vinyl)-2,5-dimethyl-1H-pyrrol-1-yl)-2-methylthiazole-4-carbonitrile] | < 100
22 | COc1cc2nc(/C(C#N)=C/c3cc(C)n(-c4sc(Cl)cc4C#N)c3C)[nH]c2cn1 [AB24349] | < 100
23 | COc1cc2nc(/C(C#N)=C/c3cc(C)n(-c4sc(C)cc4C#N)c3C)n(C)c2cn1 [AB24352, (E)-2-(3-(2-cyano-2-(6-methoxy-3-methyl-3H-imidazo[4,5-c]pyridin-2-yl)vinyl)-2,5-dimethyl-1H-pyrrol-1-yl)-5-methylthiophene-3-carbonitrile] | 100 to 1000
24 | Cc1cc(C#N)c(-n2c(C)cc(/C=C(\C#N)c3nc4cc(N(C)C)ncc4[nH]3)c2C)s1 [AB24355, (E)-2-(3-(2-cyano-2-(6-(dimethylamino)-3H-imidazo[4,5-c]pyridin-2-yl)vinyl)-2,5-dimethyl-1H-pyrrol-1-yl)-5-methylthiophene-3-carbonitrile] | < 100
25 | COc1ccc2c(c1)[nH]c1cc(-c3cc(C)n(-c4sc(C)cc4C#N)c3C)c(C)cc12 [AB24374, 2-(3-(7-methoxy-3-methyl-9H-carbazol-2-yl)-2,5-dimethyl-1H-pyrrol-1-yl)-5-methylthiophene-3-carbonitrile] | 5000 to 20000
26 | COc1ccc2[nH]c3cc(-c4cc(C)n(-c5sc(C)cc5C#N)c4C)ccc3c2c1 [AB24375, 2-(3-(6-methoxy-9H-carbazol-2-yl)-2,5-dimethyl-1H-pyrrol-1-yl)-5-methylthiophene-3-carbonitrile] | 5000 to 20000
27 | COc1ccc2nc3cc(-c4cc(C)n(-c5sc(C)cc5C#N)c4C)ccc3n2c1 [AB24385, 2-(3-(2-methoxybenzo[4,5]imidazo[1,2-a]pyridin-7-yl)-2,5-dimethyl-1H-pyrrol-1-yl)-5-methylthiophene-3-carbonitrile] | 1000 to 5000
28 | COc1cc2nc(/C(C#N)=C/c3cc(C)n(Cc4ccco4)c3C)[nH]c2cn1 [AB24397, (E)-3-(1-(furan-2-ylmethyl)-2,5-dimethyl-1H-pyrrol-3-yl)-2-(6-methoxy-3H-imidazo[4,5-c]pyridin-2-yl)acrylonitrile] | < 100
29 | COc1cc2nc(/C(C#N)=C/c3cc(C)n(Cc4ccccc4)c3C)[nH]c2cn1 [AB24398, (E)-3-(1-benzyl-2,5-dimethyl-1H-pyrrol-3-yl)-2-(6-methoxy-3H-imidazo[4,5-c]pyridin-2-yl)acrylonitrile] | < 100
30 | COc1cc2nc(NC(=O)c3cc(C)n(-c4sc(C)nc4C#N)c3C)[nH]c2cn1 [AB29502, 1-(4-cyano-2-methylthiazol-5-yl)-N-(6-methoxy-3H-imidazo[4,5-c]pyridin-2-yl)-2,5-dimethyl-1H-pyrrole-3-carboxamide] | 100 to 1000
31 | COc1ccc2nc(NC(=O)c3cc(C)n(-c4sc(C)nc4C)c3C)[nH]c2c1 [AB29505, 1-(2,4-dimethylthiazol-5-yl)-N-(6-methoxy-1H-benzo[d]imidazol-2-yl)-2,5-dimethyl-1H-pyrrole-3-carboxamide] | 100 to 1000
32 | COc1cc2nc(/C(C#N)=C/c3cc(C)n(Cc4ccccn4)c3C)[nH]c2cn1 [AB29507, (E)-3-(2,5-dimethyl-1-(pyridin-2-ylmethyl)-1H-pyrrol-3-yl)-2-(6-methoxy-3H-imidazo[4,5-c]pyridin-2-yl)acrylonitrile] | < 100
33 | COc1cc2nc(/C(C#N)=C/c3cc(C)n(Cc4cnccn4)c3C)[nH]c2cn1 [AB29508, (E)-3-(2,5-dimethyl-1-(pyrazin-2-ylmethyl)-1H-pyrrol-3-yl)-2-(6-methoxy-3H-imidazo[4,5-c]pyridin-2-yl)acrylonitrile] | < 100
34 | COc1ccc2nc(NC(=O)c3cc(C)n(-c4sc(C)nc4C#N)c3C)[nH]c2c1 [AB29509, 1-(4-cyano-2-methylthiazol-5-yl)-N-(6-methoxy-1H-benzo[d]imidazol-2-yl)-2,5-dimethyl-1H-pyrrole-3-carboxamide] | 100 to 1000
